Assay results taken from ChEMBL document CHEMBL2331529, “Design and Synthesis of Potent Bivalent Peptide Agonists Targeting the EphA2 Receptor” (ACS Med Chem Lett, 2013).
Activity calls are given as the source filed them. The rule behind the calls is not given here.

How the values were obtained:
Ephrin type-A receptor 2 = Ephrin type-A receptor 2 (Homo sapiens, UniProt P29317); assay: Agonist activity at IgG1 Fc region fused-immobilized EphA2 ectodomain (unknown origin) assessed as inhibition of EphA2/ephrin-A5 AP interaction incubated for 3 hrs by ELISA
Sequence of Ephrin type-A receptor 2 (P29317 whole entry, the tested form may be a part): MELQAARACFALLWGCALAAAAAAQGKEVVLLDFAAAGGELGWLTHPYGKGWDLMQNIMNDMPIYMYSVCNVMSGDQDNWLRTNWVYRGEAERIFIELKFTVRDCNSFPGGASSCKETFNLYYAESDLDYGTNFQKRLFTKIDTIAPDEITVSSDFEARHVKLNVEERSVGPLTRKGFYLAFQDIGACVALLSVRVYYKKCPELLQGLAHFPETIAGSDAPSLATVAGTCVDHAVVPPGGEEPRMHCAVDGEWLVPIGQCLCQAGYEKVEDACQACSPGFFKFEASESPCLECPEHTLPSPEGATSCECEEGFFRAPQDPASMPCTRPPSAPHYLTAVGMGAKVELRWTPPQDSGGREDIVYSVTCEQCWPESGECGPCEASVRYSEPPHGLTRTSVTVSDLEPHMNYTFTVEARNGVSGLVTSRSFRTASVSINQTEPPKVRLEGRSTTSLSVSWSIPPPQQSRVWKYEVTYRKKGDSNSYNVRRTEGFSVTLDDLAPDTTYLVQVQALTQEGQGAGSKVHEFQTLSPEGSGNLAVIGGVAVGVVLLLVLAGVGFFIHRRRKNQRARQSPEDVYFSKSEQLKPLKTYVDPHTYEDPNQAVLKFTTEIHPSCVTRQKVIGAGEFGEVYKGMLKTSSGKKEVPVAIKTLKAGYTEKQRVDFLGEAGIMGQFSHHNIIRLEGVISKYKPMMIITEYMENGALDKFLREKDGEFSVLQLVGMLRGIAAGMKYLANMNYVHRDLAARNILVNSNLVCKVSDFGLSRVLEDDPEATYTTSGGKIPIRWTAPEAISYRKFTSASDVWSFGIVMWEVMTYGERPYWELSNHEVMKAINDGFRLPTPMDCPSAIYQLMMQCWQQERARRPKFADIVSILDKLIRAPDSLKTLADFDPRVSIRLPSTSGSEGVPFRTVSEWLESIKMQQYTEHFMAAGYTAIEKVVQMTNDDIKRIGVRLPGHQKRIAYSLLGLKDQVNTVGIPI

[1] = target: Ephrin type-A receptor 4 (Homo sapiens) (UniProt P54764); assay: Agonist activity at IgG1 Fc region fused-immobilized EphA4 (unknown origin) assessed as inhibition of EphA4/ephrin-A5 AP interaction at 10 uM incubated for 3 hrs by ELISA
Sequence of Ephrin type-A receptor 4 (Homo sapiens) (P54764 whole entry, the tested form may be a part): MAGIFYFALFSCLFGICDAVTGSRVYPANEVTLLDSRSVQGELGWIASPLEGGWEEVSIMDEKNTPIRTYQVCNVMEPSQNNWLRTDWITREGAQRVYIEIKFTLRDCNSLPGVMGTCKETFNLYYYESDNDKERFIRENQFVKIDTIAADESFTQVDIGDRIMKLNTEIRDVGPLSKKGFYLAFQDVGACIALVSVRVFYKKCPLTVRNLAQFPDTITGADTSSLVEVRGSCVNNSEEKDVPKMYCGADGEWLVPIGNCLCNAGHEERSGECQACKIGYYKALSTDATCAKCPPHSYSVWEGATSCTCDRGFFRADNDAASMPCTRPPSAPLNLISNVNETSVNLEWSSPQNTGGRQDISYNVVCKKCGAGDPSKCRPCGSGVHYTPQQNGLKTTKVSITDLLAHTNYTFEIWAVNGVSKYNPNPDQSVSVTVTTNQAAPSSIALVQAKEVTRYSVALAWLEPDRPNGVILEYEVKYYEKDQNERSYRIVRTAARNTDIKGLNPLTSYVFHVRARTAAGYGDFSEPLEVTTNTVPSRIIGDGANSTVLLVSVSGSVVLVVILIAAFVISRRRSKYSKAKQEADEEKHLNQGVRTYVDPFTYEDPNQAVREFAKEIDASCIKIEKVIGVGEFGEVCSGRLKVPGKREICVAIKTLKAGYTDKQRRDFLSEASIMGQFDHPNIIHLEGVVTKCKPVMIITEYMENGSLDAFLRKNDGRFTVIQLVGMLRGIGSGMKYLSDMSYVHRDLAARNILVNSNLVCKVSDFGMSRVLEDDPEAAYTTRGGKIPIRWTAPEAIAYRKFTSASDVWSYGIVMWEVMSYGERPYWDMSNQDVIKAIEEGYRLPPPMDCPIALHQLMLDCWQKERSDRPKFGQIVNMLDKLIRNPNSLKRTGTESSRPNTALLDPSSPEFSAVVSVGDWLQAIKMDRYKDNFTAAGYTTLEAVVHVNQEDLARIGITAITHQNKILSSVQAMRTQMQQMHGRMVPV

[2] = target: T1, Ephrin type-B receptor 2 (Homo sapiens) (UniProt P29323); assay: Agonist activity at IgG1 Fc region fused-immobilized EphB2 (unknown origin) assessed as inhibition of EphB2/ephrin-B2 AP interaction at 10 uM incubated for 3 hrs by ELISA
T1 sequence (whole entry): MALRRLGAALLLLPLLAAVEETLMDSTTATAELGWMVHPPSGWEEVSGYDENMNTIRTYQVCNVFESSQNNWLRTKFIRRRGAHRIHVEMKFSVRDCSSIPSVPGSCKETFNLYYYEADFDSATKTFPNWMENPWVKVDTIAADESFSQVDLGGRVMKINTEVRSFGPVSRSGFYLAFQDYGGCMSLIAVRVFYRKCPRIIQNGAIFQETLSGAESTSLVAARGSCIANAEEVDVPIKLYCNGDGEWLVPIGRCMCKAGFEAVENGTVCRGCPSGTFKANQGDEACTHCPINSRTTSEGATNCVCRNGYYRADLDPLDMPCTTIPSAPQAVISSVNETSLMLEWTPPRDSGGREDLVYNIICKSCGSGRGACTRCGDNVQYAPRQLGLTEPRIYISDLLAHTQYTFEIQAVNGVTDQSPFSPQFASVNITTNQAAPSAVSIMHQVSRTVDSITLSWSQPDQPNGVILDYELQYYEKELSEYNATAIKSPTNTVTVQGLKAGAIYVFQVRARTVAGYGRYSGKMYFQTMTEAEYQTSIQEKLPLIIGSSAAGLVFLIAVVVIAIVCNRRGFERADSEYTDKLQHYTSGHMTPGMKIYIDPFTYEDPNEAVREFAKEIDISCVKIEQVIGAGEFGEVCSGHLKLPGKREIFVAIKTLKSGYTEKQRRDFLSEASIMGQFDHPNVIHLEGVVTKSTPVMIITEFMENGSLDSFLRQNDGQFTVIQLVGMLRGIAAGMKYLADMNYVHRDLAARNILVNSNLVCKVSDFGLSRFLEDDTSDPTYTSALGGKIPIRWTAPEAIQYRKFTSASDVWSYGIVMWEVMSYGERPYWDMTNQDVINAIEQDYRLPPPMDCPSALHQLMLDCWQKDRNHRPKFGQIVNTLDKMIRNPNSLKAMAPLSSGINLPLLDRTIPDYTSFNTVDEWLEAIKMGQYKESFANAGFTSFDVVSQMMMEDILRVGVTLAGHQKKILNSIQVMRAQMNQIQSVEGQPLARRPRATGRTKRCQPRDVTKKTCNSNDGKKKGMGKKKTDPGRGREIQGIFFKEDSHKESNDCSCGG

| IC50 (Ephrin type-A receptor 2) [µM] | inhibition [1] | inhibition [2] | Molecule |
| --- | --- | --- | --- |
| > 100 |  |  | H-SWLSYPGAVSYR-OH |
| ≥ 100 |  |  | H-SWLAAPGAVSYR-OH |
| ≥ 100 |  |  | H-SWLAYAGAVSYR-OH |
|  | Active | Active | CC(C)C[C@H](NC(=O)[C@H](C)NC(=O)[C@H](Cc1ccc(O)cc1)NC(=O)[C@@H]1CCCN1C(=O)CNC(=O)[C@H](C)NC(=O)[C@@H](NC(=O)[C@H](CO)NC(=O)[C@H](Cc1ccc(O)cc1)NC(=O)[C@H](CCCNC(=N)N)NC(=O)[C@H](CCCCNC(=O)CCCCCN)NC(=O)[C@H](CCCNC(=N)N)NC(=O)[C@H](Cc1ccc(O)cc1)NC(=O)[C@H](CO)NC(=O)[C@@H](NC(=O)[C@H](C)NC(=O)CNC(=O)[C@@H]1CCCN1C(=O)[C@H](Cc1ccc(O)cc1)NC(=O)[C@H](C)NC(=O)[C@H](CC(C)C)NC(=O)[C@H](Cc1c[nH]c2ccccc12)NC(=O)[C@@H](N)CO)C(C)C)C(C)C)C(=O)N[C@@H](Cc1c[nH]c2ccccc12)C(=O)N[C@@H](CO)C(=O)O |
| ≥ 100 |  |  | H-SALAYPGAVSYR-OH |
